In patent US7906514B1, “Animal model and compounds identified via this model for treatment of chronic pain” (Trustees of Dartmouth College, priority 1999, dated 2011):

Tests used:
[1] = system: OX-42 and GFAP (glial fibrillary acidic protein); assay: Immunohistochemical analysis of spinal glial activation; format: in vivo, rat; conditions: methotrexate-treated groups vs saline-treated groups; L5 spinal cord sections
Experimental: All animals were perfusion fixed for immunohistochemistry. Under deep anesthesia (sodium pentobarbital, 50 mg/kg intraperitoneally) rats were euthanized by transcardiac perfusion. Rats were then perfused with 300 ml phosphate buffered saline (PBS) followed by 500 ml 4% paraformaldehyde in 0.1 M PBS. Following perfusion and laminectomy, the lesioned L5 roots were verified and traced to their site of entry into the spinal cord. Appropriate L5 spinal cord segments were harvested and post fixed for 4 hours in fixative and then cryoprotected 2-3 days in 30% sucrose/PBS at 4° C. The segments were then freeze-mounted in OCT embedding medium on cork blocks for cryostat sectioning.
Optimal dilutions and incubation time periods for each antibody and lot were determined prior to the study. Immunohistochemistry was performed with the avidin-biotin technique on free-floating 20 μm sections. Elimination of the primary antibody was performed in each run as a negative control. Monoclonal antibody OX-42 (labeling the complement receptor-3, CDllb) was used as a microglial marker at a dilution of […]. A rabbit polyclonal antibody to glial fibrillary protein (anti-GFAP, DAKO, Carpintra, Calif.) was used as an astrocytic marker at a dilution of 1:20,000. Five or more sections per animal were prepared from the L5 segments in each run. […]

[2] = system: rat model for lower back pain (L5 spinal root loosely ligated with chromic gut); assay: Gait disturbance and hind paw inversion testing after L5 spinal root injury; format: in vivo; conditions: phase I
Source text: The first phase of the study investigated three combinations of treatments: 1) Group A—methotrexate administration locally (intrathecally) to the surgical area immediately following surgery, followed by additional methotrexate administration locally at days 2 and 4 post-surgery; 2) Group B—saline administration locally to the surgical area immediately following surgery and at days 2 and 4 post-surgery; and 3) Group C—sham-operated animals that received methotrexate at the same time points. In all animals, gait disturbance and mechanical allodynia were assessed until animals were euthanized 7 days after surgery. […]
(§1) Male Holtzman rats (200-250 g) were used. All surgical procedures were performed under inhalation anesthesia (induced at 4% and maintained at 2% halothane in 100% O2). Spinal root, dorsal root ganglia, and the adjacent dura mater on the left side at L5 were carefully exposed by hemilaminectomy using a surgical microscope. Five 0.3 cm pieces of 4-0 chromic gut ligature were laid adjacent to the root and secured by two loose ligatures of 5-0 chromic gut. The muscle layers and incision were closed with 3-0 silk suture and staples, respectively.
For phase I, three combinations of treatments were investigated. Methotrexate was reconstituted to 10 mg/ml in saline and pH adjusted to 7.4. Group A represented root injury plus methotrexate treatment. […]

[3] = system: rat model for lower back pain (L5 spinal root loosely ligated with chromic gut); assay: Gross pathological inspection of injured nerve roots following euthanasia; format: in vivo; conditions: methotrexate-treated groups (A, D and F) compared to saline-treated groups (B and E)
Experimental: In all groups except the sham-operated animals (Group C), the treated nerve roots were encapsulated with dense granulation tissue and fibrous adhesions.
as §1
For phase I, three combinations of treatments were investigated. Methotrexate was reconstituted to 10 mg/ml in saline and pH adjusted to 7.4. Group A represented root injury plus methotrexate treatment. Immediately following surgery and prior to incision closure, Group A rats received 1 mg/kg of methotrexate (volume 100 ul/kg) by injecting through a PE-10 catheter through an incision in the exposed dura mater to a position 3 cm central to the incision. […]
Group F represented methotrexate plus saline treatment. […] Gait disturbance and mechanical allodynia were also assessed in these animals at days 2, 4, 7, 9, 11 and 14 (day of euthanization).

[4] = dose without acute neurotoxic effects; Morris et al. 1992; cited from earlier work
[5] = system: rat model for lower back pain (L5 spinal root loosely ligated with chromic gut); assay: Mechanical sensitivity (allodynia) testing with von Frey filaments after L5 spinal root injury; format: in vivo
Source text: The first phase of the study investigated three combinations of treatments: 1) Group A—methotrexate administration locally (intrathecally) to the surgical area immediately following surgery, followed by additional methotrexate administration locally at days 2 and 4 post-surgery; 2) Group B—saline administration locally to the surgical area immediately following surgery and at days 2 and 4 post-surgery; and 3) Group C—sham-operated animals that received methotrexate at the same time points. In all animals, gait disturbance and mechanical allodynia were assessed until animals were euthanized 7 days after surgery.
In the second phase of the study, animals were assessed out to day 14 post-surgery and given additional treatments as follows: 1) Group D—surgically prepared, saline treated rats were then given methotrexate locally during the second week of the study on days 7, 9, and 11 post-surgery; 2) Group E—surgically prepared, saline treated rats were then given saline locally during the second week on days 7, 9, and 11 post-surgery; and 3) Group F—surgically prepared, methotrexate treated rats were then given saline during the second week on days 7, 9, and 11 post-surgery. Gait disturbance and mechanical allodynia were assessed before surgery and at days 2, 4, 7, 9, 11, and 14 until euthanization.
as §1
For phase I, three combinations of treatments were investigated. Methotrexate was reconstituted to 10 mg/ml in saline and pH adjusted to 7.4. Group A represented root injury plus methotrexate treatment. Immediately following surgery and prior to incision closure, Group A rats received 1 mg/kg of methotrexate (volume 100 ul/kg) by injecting through a PE-10 catheter through an incision in the exposed dura mater to a position 3 cm central to the incision. The PE-10 catheter was pulled out and the same dose and volume of methotrexate (1 mg/kg) was administered around the injured nerve roots (total dose 2 mg/kg). The wound was closed. On days 2 and 4 post-surgery, under inhalation anesthesia, methotrexate was again administered by opening the surgical wound and repeating delivery of methotrexate as before.
Group C animals represented sham-operated plus methotrexate treatment. In these animals, the L5 nerve roots were exposed but not injured. Methotrexate was administered using the same dose, protocol, and time points as Group A.
For phase II of the study, the protocol was extended to day 14 with the surgery, delivery method, volume and doses being identical to those of the phase I study. Rats were divided into 3 groups. Group D represented saline plus methotrexate treatment. Saline was administered at the time of surgery and at days 2 and 4 post-surgery. Methotrexate was administered in the second week at days 7, 9 and 11 post-surgery.
Group F represented methotrexate plus saline treatment. In these rats, methotrexate was administered during surgery and at days 2 and 4 post-surgery. Saline was then administered on days 7, 9, and 11 post-surgery. Gait disturbance and mechanical allodynia were also assessed in these animals at days 2, 4, 7, 9, 11 and 14 (day of euthanization).
Animals were tested for 3 days pre-operatively to acclimate to the testing apparatus and the experimenter, and to obtain baseline values. All testing was performed by experimenters blinded to the treatments.

CN(Cc1cnc2nc(N)nc(N)c2n1)c1ccc(C(=O)N[C@@H](CCC(=O)O)C(=O)O)cc1 [methotrexate, Methotrexate]
level of glial activation (OX-42, GFAP) [1]: significant difference
postoperative changes in hind paw inversion or gait disturbance ([2]; Group A (injury+methotrexate, 1 mg/kg intrathecal + 1 mg/kg perineural at surgery, days 2 and 4) vs Group B (saline)): no significant difference
hind paw inversion or gait disturbance ([2]; Group C, sham-operated + methotrexate at surgery, days 2 and 4): did not demonstrate any hind paw inversion or gait disturbance
granulation and adhesion around the injured nerve roots [3]: markedly decreased
administered dose (1 mg/kg) as fraction of the maximally tolerated dose for rats [4]: one quarter
mechanical allodynia, overall conclusion ([5]; lower back pain model with radiculopathy, local administration): significantly attenuates
mechanical allodynia ([5]; phase I, Group A (injury+methotrexate at surgery, days 2 and 4), toward baseline after peak at day 2, to day 7): significantly reduced
mechanical allodynia response after surgery ([5]; phase I, Group C (sham-operated+methotrexate)): minimal (minimal (0-5))
mechanical allodynia during the second week ([5]; phase II, Group D (saline in week 1, methotrexate on days 7, 9, 11), existing allodynia, Group E (saline) persisted): significantly decreased
allodynia at day 7 post-surgery ([5]; phase II, Group F (methotrexate at surgery, days 2 and 4) compared to Groups D and E): significantly attenuated
allodynic response during the second week ([5]; phase II, Group F compared to Group E): significantly lower
